Reference: patent US6372446B1, “Method of selectively determining a fungal biomass” (Mycometer ApS, priority 1997, dated 2002)

What was measured:
[1] = tested on: Schizophyllum commune (AGM 25); test: Screening of fungi for enzyme activity with 4-methylumbelliferone-labelled substrates; assay type: cell-based; conditions: substrate 10 μM, 25° C., pH 5; for Enzyme activity: amount of released 4-methylumbelliferone: mineral medium; for Enzyme activity: amount of released 4-methylumbelliferone during 5 hours of incubation: vegetable juice medium
[2] = tested on: Cladosporium herbarum (AGM 8); test: as above; assay type: cell-based; conditions: substrate 10 μM, 25° C., pH 5; for Enzyme activity: amount of released 4-methylumbelliferone: mineral medium; for Enzyme activity: amount of released 4-methylumbelliferone during 5 hours of incubation: vegetable juice medium
[3] = tested on: Mucor racemosus (AAS 310); test: as above; assay type: cell-based; conditions: substrate 10 μM, 25° C., pH 5; for Enzyme activity: amount of released 4-methylumbelliferone: mineral medium; for Enzyme activity: amount of released 4-methylumbelliferone during 5 hours of incubation: vegetable juice medium
[4] = tested on: Aspergillus oryzae (AGM 11); test: as above; assay type: cell-based; conditions: substrate 10 μM, 25° C., pH 5; for Enzyme activity: amount of released 4-methylumbelliferone: mineral medium; for Enzyme activity: amount of released 4-methylumbelliferone during 5 hours of incubation: vegetable juice medium
[5] = tested on: Rhizomucor pusillus (AAS 300); test: as above; assay type: cell-based; conditions: substrate 10 μM, 25° C., pH 5; for Enzyme activity: amount of released 4-methylumbelliferone: mineral medium; for Enzyme activity: amount of released 4-methylumbelliferone during 5 hours of incubation: vegetable juice medium
[6] = tested on: Penicillium solitum (IBT 13771); test: as above; assay type: cell-based; conditions: substrate 10 μM, 25° C., pH 5; for Enzyme activity: amount of released 4-methylumbelliferone: mineral medium; for Enzyme activity: amount of released 4-methylumbelliferone during 5 hours of incubation: vegetable juice medium
[7] = tested on: Ascobolus crenulatus (AAS 1); test: as above; assay type: cell-based; conditions: substrate 10 μM, 25° C., pH 5; for Enzyme activity: amount of released 4-methylumbelliferone: mineral medium; for Enzyme activity: amount of released 4-methylumbelliferone during 5 hours of incubation: vegetable juice medium
human hexosaminidase = test: Cleavage of substrate in human blood and plasma samples; assay type: biochemical
Description: The diagnostic method detects fungal β-N-acetylhexosaminidase activity in human plasma. […] However, it was discovered that this human hexosaminidase activity can be eliminated by a pre-treatment step comprising precipitation e.g. by adding ammonium sulphate (70% saturation) to the human plasma samples. […] In the samples containing C. albicans culture fluid more than 75% of the fungal β-N-acetylhexosaminidase activity remained after precipitation step to eliminate interfering human enzyme activity. […] After incubation, 300 μl Tris buffer (2.5 M) was added to the mixture to increase the pH to above 9 and the fluorescence measured. This procedure was tested on plasma from different control subjects with no known previous fungal infections. Culture fluids from cultivation of C. albicans or of A. fumigatus containing β-N-acetylhexosaminidase activity were added to the plasma samples. […] After the incubation, Tris buffer was added and the fluorescence formed was measured against the control samples. The presence of fungal β-N-acetylhexosaminidase activity was detected and the fluorescence was proportional to the amount of fungal β-N-acetylhexosaminidase added.

[8] = tested on: Aspergillus versicolor (IBT 13738); test: Screening of fungi for enzyme activity with 4-methylumbelliferone-labelled substrates; assay type: cell-based; conditions: substrate 10 μM, 25° C., pH 5; for Enzyme activity: amount of released 4-methylumbelliferone: mineral medium; for Enzyme activity: amount of released 4-methylumbelliferone during 5 hours of incubation: vegetable juice medium
[9] = tested on: Trametes versicolor (AGM 24); test: as above; assay type: cell-based; conditions: substrate 10 μM, 25° C., pH 5; for Enzyme activity: amount of released 4-methylumbelliferone: mineral medium; for Enzyme activity: amount of released 4-methylumbelliferone during 5 hours of incubation: vegetable juice medium
Eurotium sp. (AAS 36) = test: as above; assay type: cell-based; conditions: substrate 10 μM, 25° C., pH 5; for Enzyme activity: amount of released 4-methylumbelliferone: mineral medium; for Enzyme activity: amount of released 4-methylumbelliferone during 5 hours of incubation: vegetable juice medium
[10] = tested on: Paecilomyces farinosus (AGM 5); test: as above; assay type: cell-based; conditions: substrate 10 μM, 25° C., pH 5; for Enzyme activity: amount of released 4-methylumbelliferone: mineral medium; for Enzyme activity: amount of released 4-methylumbelliferone during 5 hours of incubation: vegetable juice medium
all fungi tested = test: Screening of a diverse selection of fungi for ability to degrade 11 substrates (summary); assay type: cell-based; conditions: mineral medium and vegetable juice medium
Protocol: A number of fungi representing different taxonomic groupings were screened for enzyme activity. The fungi were grown for in 24 well plates (Nunclon Multidish, Life Technologies A/S) (well volume 3.4 ml) containing 1.5 ml of agarized growth medium. After a growth period of 10 days at 25° C., 1.5 ml citrate-phosphat buffer (pH 5) were added to the wells and one of 11 enzyme substrates were then added to each well and incubated for 5 hours at 25° C. after which the fluorescence of each well was measured. For each fungus two wells were incubated with each enzyme substrate. All substrates were used in a final concentration of 10 μM. The substrate only and the organism plus the agarized medium were included as controls. […] The fungi subjected to the assaying procedure were all obtained from the culture collection of the Department of General Microbiology at the University of Copenhagen, Denmark.

[11] = tested on: Penicillium commune (IBT 13713); test: Screening of fungi for enzyme activity with 4-methylumbelliferone-labelled substrates; assay type: cell-based; conditions: substrate 10 μM, 25° C., pH 5; for Enzyme activity: amount of released 4-methylumbelliferone: mineral medium; for Enzyme activity: amount of released 4-methylumbelliferone during 5 hours of incubation: vegetable juice medium
[12] = tested on: Sodaria fimicola (AAS 17); test: as above; assay type: cell-based; conditions: substrate 10 μM, 25° C., pH 5; for Enzyme activity: amount of released 4-methylumbelliferone: mineral medium; for Enzyme activity: amount of released 4-methylumbelliferone during 5 hours of incubation: vegetable juice medium
[13] = tested on: Aureobasidium pullulans (QM 3092); test: as above; assay type: cell-based; conditions: substrate 10 μM, 25° C., pH 5; for Enzyme activity: amount of released 4-methylumbelliferone during 5 hours of incubation: Aureobasidium pulluians (QM 3092), vegetable juice medium; for Enzyme activity: amount of released 4-methylumbelliferone: Aureobasidium pullulans (QM 3092), mineral medium

Enzyme activity: amount of released 4-methylumbelliferone [1]	Enzyme activity: amount of released 4-methylumbelliferone during 5 hours of incubation [1]	Enzyme activity: amount of released 4-methylumbelliferone [2]	Enzyme activity: amount of released 4-methylumbelliferone during 5 hours of incubation [2]	Enzyme activity: amount of released 4-methylumbelliferone [3]	Enzyme activity: amount of released 4-methylumbelliferone during 5 hours of incubation [3]	Enzyme activity: amount of released 4-methylumbelliferone [4]	Enzyme activity: amount of released 4-methylumbelliferone during 5 hours of incubation [4]	Enzyme activity: amount of released 4-methylumbelliferone [5]	Enzyme activity: amount of released 4-methylumbelliferone during 5 hours of incubation [5]	Enzyme activity: amount of released 4-methylumbelliferone [6]	Enzyme activity: amount of released 4-methylumbelliferone during 5 hours of incubation [6]	Enzyme activity: amount of released 4-methylumbelliferone [7]	Enzyme activity: amount of released 4-methylumbelliferone during 5 hours of incubation [7]	Enzyme activity: amount of released 4-methylumbelliferone [8]	Enzyme activity: amount of released 4-methylumbelliferone during 5 hours of incubation [8]	Enzyme activity: amount of released 4-methylumbelliferone [9]	Enzyme activity: amount of released 4-methylumbelliferone during 5 hours of incubation [9]	Enzyme activity: amount of released 4-methylumbelliferone (Eurotium sp. (AAS 36))	Enzyme activity: amount of released 4-methylumbelliferone during 5 hours of incubation (Eurotium sp. (AAS 36))	Compound	further results
*** (2 ≦ ***)	*** (2 ≦ ***)	** (1 ≦ ** 2)	** (1 ≦ ** 2)	*** (2 ≦ ***)	*** (2 ≦ ***)	*** (2 ≦ ***)	*** (2 ≦ ***)	* (0.4 ≦ * < 1)	*** (2 ≦ ***)	*** (2 ≦ ***)	*** (2 ≦ ***)	*** (2 ≦ ***)	*** (2 ≦ ***)	** (1 ≦ ** 2)	*** (2 ≦ ***)	** (1 ≦ ** 2)	*** (2 ≦ ***)	*** (2 ≦ ***)	*** (2 ≦ ***)	CC(=O)N[C@H]1[C@H](Oc2ccc3c(C)cc(=O)oc3c2)O[C@H](CO)[C@@H](O)[C@@H]1O [substrate 3, 4-methylumbelliferyl N-acetyl-β-D-blucosaminide]	cleavage by human hexosaminidase (human hexosaminidase): also cleaved by human hexosaminidase; Enzyme activity: amount of released 4-methylumbelliferone [10]: *** (2 ≦ ***); Enzyme activity: amount of released 4-methylumbelliferone during 5 hours of incubation [10]: *** (2 ≦ ***); ability to degrade the substrate (all fungi tested): could be demonstrated in all fungi tested; Enzyme activity: amount of released 4-methylumbelliferone [11]: ** (1 ≦ ** 2); Enzyme activity: amount of released 4-methylumbelliferone during 5 hours of incubation [11]: *** (2 ≦ ***); Enzyme activity: amount of released 4-methylumbelliferone [12]: ** (1 ≦ ** 2); Enzyme activity: amount of released 4-methylumbelliferone during 5 hours of incubation [12]: *** (2 ≦ ***); Enzyme activity: amount of released 4-methylumbelliferone during 5 hours of incubation [13]: *** (2 ≦ ***); Enzyme activity: amount of released 4-methylumbelliferone [13]: *** (2 ≦ ***)
** (1 ≦ ** 2)	*** (2 ≦ ***)	* (0.4 ≦ * < 1)	* (0.4 ≦ * < 1)	** (1 ≦ ** 2)	*** (2 ≦ ***)	** (1 ≦ ** 2)	*** (2 ≦ ***)	*** (2 ≦ ***)	*** (2 ≦ ***)	** (1 ≦ ** 2)	*** (2 ≦ ***)	** (1 ≦ ** 2)	** (1 ≦ ** 2)	* (0.4 ≦ * < 1)	*** (2 ≦ ***)	** (1 ≦ ** 2)	*** (2 ≦ ***)	** (1 ≦ ** 2)	** (1 ≦ ** 2)	CC(=O)N[C@H]1[C@H](Oc2ccc3c(C)cc(=O)oc3c2)O[C@H](CO)[C@@H](O[C@@H]2O[C@H](CO)[C@@H](O[C@@H]3O[C@H](CO)[C@@H](O)[C@H](O)[C@H]3NC(C)=O)[C@H](O)[C@H]2NC(C)=O)[C@@H]1O [substrate 4, 4-methylumbelliferyl β-D-N,N′,N″triacetylchitotrioside]	Enzyme activity: amount of released 4-methylumbelliferone [10]: ** (1 ≦ ** 2); Enzyme activity: amount of released 4-methylumbelliferone during 5 hours of incubation [10]: *** (2 ≦ ***); ability to degrade the substrate (all fungi tested): could be demonstrated in all fungi tested; Enzyme activity: amount of released 4-methylumbelliferone [11]: 0 µmol; Enzyme activity: amount of released 4-methylumbelliferone during 5 hours of incubation [11]: *** (2 ≦ ***); Enzyme activity: amount of released 4-methylumbelliferone [12]: ** (1 ≦ ** 2); Enzyme activity: amount of released 4-methylumbelliferone during 5 hours of incubation [12]: *** (2 ≦ ***); Enzyme activity: amount of released 4-methylumbelliferone during 5 hours of incubation [13]: *** (2 ≦ ***); Enzyme activity: amount of released 4-methylumbelliferone [13]: *** (2 ≦ ***)
